Columns and labels:
K-Ras G12V = biological target: T1, K-Ras G12V (Homo sapiens, UniProt P01116, G12V); test: HTRF resonance energy transfer assay, K-Ras G12V / SOS1 interaction; type: biochemical; conditions: HTRF assay of Example 5; read-out: IC50 against K-Ras G12V
T1 construct: made in house; host or cells: E. coli BL21 (DE3)
Method in brief: (§1)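 Buffer about 5 mM HEPES pH 7.4 with ~150 mM NaCl, ~1 mM DTT, 0.05% BSA, 0.0025% (v/v) Igepal. Protein constructs used at molarity matching the IC50 range studied (e.g. ~500 nM). FRET between tagged K-Ras and hSOS1 measured after short incubation.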

SW620 cells = test: Ras cellular assay, growth of cells with K-Ras G12V mutation (CellTiter-Glo); type: cell-based; conditions: Homo sapiens, SW-620; cell growth, Example 9, G12V mutation; read-out: IC50 against SW620 cells
Method in brief: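 IC50 values came from a four-parameter fit of CellTiter-Glo viability, read roughly 6 days after dosing with e.g. a 10-point threefold dilution series. G12V-mutant SW620 cells (e.g. 800 per well) had been plated the previous day in RPMI-1640/10% heat-inactivated FBS, on tissue culture-treated or ultra-low attachment plates.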

A549 cells = test: Ras cellular assay, growth of cells with K-Ras G12S mutation (CellTiter-Glo); type: cell-based; conditions: Homo sapiens, cell growth, Example 9, G12S mutation, read-out: IC50 against A549 cells
Method in brief: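 Growth inhibition IC50 values come from four-parameter fits of CellTiter-Glo luminescence, read about 6 days after compound addition. G12S-mutant A549 cells (e.g. 800/well, RPMI-1640 + 10% heat-inactivated FBS) were plated in tissue-culture-treated or ultra-low-attachment 384-well format. Dosing began the following day with serial dilutions, e.g. 10 points, 3-fold.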

K-Ras G12S = biological target: T2, K-Ras G12S (Homo sapiens, UniProt P01116, G12S); test: HTRF resonance energy transfer assay, K-Ras G12S / SOS1 interaction; type: biochemical; conditions: HTRF assay of Example 5; read-out: IC50 against K-Ras G12S
T2 construct: made in house; host or cells: E. coli BL21 (DE3)
T2 sequence (P01116 1-188 isoform P01116-2 G12S): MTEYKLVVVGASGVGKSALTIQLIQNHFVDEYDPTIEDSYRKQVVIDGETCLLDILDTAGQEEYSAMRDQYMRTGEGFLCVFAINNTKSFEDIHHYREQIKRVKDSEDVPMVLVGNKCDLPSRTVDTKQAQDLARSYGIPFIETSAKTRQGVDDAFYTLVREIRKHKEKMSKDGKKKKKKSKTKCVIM
Method in brief: as §1

K-Ras G12D = biological target: T3, K-Ras G12D (Homo sapiens, UniProt P01116, G12D); test: HTRF resonance energy transfer assay, K-Ras G12D / SOS1 interaction; type: biochemical; conditions: HTRF assay of Example 5; read-out: IC50 against K-Ras G12D
T3 construct: made in house; host or cells: E. coli BL21 (DE3)
T3 sequence (P01116 1-188 isoform P01116-2 G12D): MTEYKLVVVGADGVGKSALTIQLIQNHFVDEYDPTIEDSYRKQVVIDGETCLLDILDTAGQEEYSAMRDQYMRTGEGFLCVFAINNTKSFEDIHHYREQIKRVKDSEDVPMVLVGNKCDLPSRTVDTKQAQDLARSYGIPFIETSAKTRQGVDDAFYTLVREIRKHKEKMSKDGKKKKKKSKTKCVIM
Method in brief: as §1

GP2D cells = test: Ras cellular assay, growth of cells with K-Ras G12D mutation (CellTiter-Glo); type: cell-based; conditions: cell growth, Example 9, G12D mutation, read-out: IC50 against GP2D cells
K-Ras WT = biological target: T4, K-Ras WT (Homo sapiens, UniProt P01116); test: HTRF resonance energy transfer assay, K-Ras WT / SOS1 interaction; type: biochemical; conditions: HTRF assay of Example 5; read-out: IC50 against K-Ras WT
T4 construct: made in house; host or cells: E. coli BL21 (DE3)
T4 sequence (P01116 1-188 isoform P01116-2): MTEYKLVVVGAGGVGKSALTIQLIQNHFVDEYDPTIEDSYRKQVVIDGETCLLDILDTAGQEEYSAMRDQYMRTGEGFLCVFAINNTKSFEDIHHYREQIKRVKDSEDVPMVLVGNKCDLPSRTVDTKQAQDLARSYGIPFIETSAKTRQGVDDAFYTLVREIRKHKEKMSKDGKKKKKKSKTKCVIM
Method in brief: as §1

T1 sequence (P01116 1-188 isoform P01116-2 G12V): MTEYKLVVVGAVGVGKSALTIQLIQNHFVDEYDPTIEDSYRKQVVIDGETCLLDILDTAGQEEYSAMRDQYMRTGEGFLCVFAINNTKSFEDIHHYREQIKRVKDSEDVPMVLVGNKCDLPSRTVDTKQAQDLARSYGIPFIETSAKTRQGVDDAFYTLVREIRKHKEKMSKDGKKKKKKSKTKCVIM

Row | Compound | IC50 (K-Ras G12V) | IC50 (SW620 cells) | IC50 (A549 cells) | IC50 (K-Ras G12S) | IC50 (K-Ras G12D) | IC50 (K-Ras WT) | IC50 (GP2D cells)
1 | CC1COc2c(Cl)c(-c3ccc(F)c4sc(N)c(C#N)c34)c(F)c3nc(OC[C@@]45CCCN4C[C@H](F)C5)nc(c23)N1[C@@H]1CCOC1 (stereo partly drawn) [Compound 888, 2-amino-4-(8-chloro-10-fluoro-2-(((2R,7aS)-2-fluorotetrahydro-1H-pyrrolizin-7a(5H)-yl)methoxy)-5-methyl-4-((R)-tetrahydrofuran-3-yl)-5,6-dihydro-4H-[1,4]oxazepino[5,6,7-de]quinazolin-9-yl)-7-fluorobenzo[b]thiophene-3-carbonitrile] | < 100 nM | < 5000 nM | < 5000 nM | < 100 nM | < 100 nM | < 100 nM | < 500 nM
2 | N#Cc1c(N)sc2c(F)ccc(-c3c(Cl)c4c5c(nc(OC[C@@]67CCCN6C[C@H](F)C7)nc5c3F)N(CCOC(F)F)CCO4)c12 [Compound 713, 2-amino-4-(8-chloro-4-(2-(difluoromethoxy)ethyl)-10-fluoro-2-(((2R,7aS)-2-fluorotetrahydro-1H-pyrrolizin-7a(5H)-yl)methoxy)-5,6-dihydro-4H-[1,4]oxazepino[5,6,7-de]quinazolin-9-yl)-7-fluorobenzo[b]thiophene-3-carbonitrile] | < 100 nM | < 5000 nM | < 5000 nM | < 100 nM | < 100 nM | < 100 nM | < 500 nM
3 | N#Cc1c(N)sc2c(F)ccc(-c3c(Cl)c4c5c(nc(OC[C@@]67CCCN6C[C@H](F)C7)nc5c3F)N(CC(F)(F)F)CCO4)c12 [Compound 721, 2-amino-4-(8-chloro-10-fluoro-2-(((2R,7aS)-2-fluorotetrahydro-1H-pyrrolizin-7a(5H)-yl)methoxy)-4-(2,2,2-trifluoroethyl)-5,6-dihydro-4H-[1,4]oxazepino[5,6,7-de]quinazolin-9-yl)-7-fluorobenzo[b]thiophene-3-carbonitrile] | < 100 nM | < 5000 nM | < 5000 nM | < 100 nM | < 100 nM | < 100 nM | < 500 nM

Continued, in another order:

Row | IC50 (K-Ras G12V) | IC50 (SW620 cells) | IC50 (A549 cells) | IC50 (K-Ras G12S) | IC50 (K-Ras G12D) | IC50 (K-Ras WT) | Compound | IC50 (GP2D cells)
4 | < 100 nM | < 5000 nM | < 5000 nM | < 100 nM | < 100 nM | < 100 nM | N#CCC1COc2c(Cl)c(-c3ccc(F)c4sc(N)c(C#N)c34)c(F)c3nc(OC[C@@]45CCCN4C[C@H](F)C5)nc(c23)N1CC(F)F (stereo partly drawn) [Compound 700, 2-amino-4-(8-chloro-5-(cyanomethyl)-4-(2,2-difluoroethyl)-10-fluoro-2-(((2R,7aS)-2-fluorotetrahydro-1H-pyrrolizin-7a(5H)-yl)methoxy)-5,6-dihydro-4H-[1,4]oxazepino[5,6,7-de]quinazolin-9-yl)-7-fluorobenzo[b]thiophene-3-carbonitrile] | < 500 nM
5 | < 100 nM | < 5000 nM | < 5000 nM | < 100 nM | < 100 nM | < 100 nM | N#Cc1c(N)sc2c(F)ccc(-c3c(Cl)c4c5c(nc(OC[C@@]67CCCN6C[C@H](F)C7)nc5c3F)N(C3CC(NC(=O)C(F)F)C3)CCO4)c12 (stereo partly drawn) [Compound 612, N-(3-(9-(2-amino-3-cyano-7-fluorobenzo[b]thiophen-4-yl)-8-chloro-10-fluoro-2-(((2R,7aS)-2-fluorotetrahydro-1H-pyrrolizin-7a(5H)-yl)methoxy)-5,6-dihydro-4H-[1,4]oxazepino[5,6,7-de]quinazolin-4-yl)cyclobutyl)-2,2-difluoroacetamide] | < 500 nM
6 | < 100 nM | < 5000 nM | < 5000 nM | < 100 nM | < 100 nM | < 100 nM | N#Cc1c(N)sc2c(F)ccc(-c3c(Cl)c4c5c(nc(OC[C@@]67CCCN6C[C@H](F)C7)nc5c3F)N(C3CCOC3)CC(CF)O4)c12 (stereo partly drawn) [Compound 628, 2-amino-4-(8-chloro-10-fluoro-6-(fluoromethyl)-2-(((2R,7aS)-2-fluorotetrahydro-1H-pyrrolizin-7a(5H)-yl)methoxy)-4-(tetrahydrofuran-3-yl)-5,6-dihydro-4H-[1,4]oxazepino[5,6,7-de]quinazolin-9-yl)-7-fluorobenzo[b]thiophene-3-carbonitrile] | < 500 nM

Source: patent US12209102B2, “Heterocyclic compounds and uses thereof” (Kumquat Biosciences Inc., priority 2022, dated 2025)
